From patent publication US11912645B2, “Lipopeptide compounds for the treatment of pain disorders” (INSERM (Institut National de la Santé et de la Recherche …, priority 2017, dated 2024)

Legend:
[1] = Colon and blood levels after intracolonic administration (LC-MS/MS); type: in vivo, mouse; conditions: intracolonic 10 μM; 30 minutes or 4 hours; vs vehicle
Procedure: FIG. 6: C12-Asn-GABA inhibits capsaicin-induced visceral hypersensitivity without altering Intestinal contraction. Mice received intracolonic administration of C12-Asn-GABA (10 μM; black symbols) or vehicle (40% ethanol; white symbols) and 30 minutes or 4 hours later colon (A) and blood (B) were harvested in order to quantify C12-Asn-GABA by LC-MS/MS. Data are expressed as mean±SEM, n=8 mice per group. […] Mice received intracolonic administration of C12-Asn-GABA (10 μM; black symbols) or vehicle (40% ethanol; white symbols) and 30 minutes or 4 hours later an intracolonic administration of capsaicin (100 μg/mouse; square) or its vehicle (40% ethanol; circle). Fifteen minutes after capsaicin or vehicle treatment, visceromotor response (VMR) to increasing pressures of colorectal distension was performed. Data are expressed as mean±SEM, n=7-8 mice per group. […] Ex vivo measurement of duodenal mechanical contraction frequency (B) and amplitude (C) in response to Krebs-Ringer solution (control; white bar), to DMSO 0.2% (vehicle; gray bar) or to C12-Asn-GABA (10 μM; black bar). Data are expressed as mean±SEM, n=5-6 per group. […]
In a first set of experiment, we assessed the ability of the C12-Asn-GABA to cross the epithelial barrier, in vivo. […] The impact of C12-Asn-GABA on visceral hypersensitivity was assessed by measuring the visceromotor responses (VMR) to colorectal distension (CRD). […]

[2] = test system: mouse dorsal root ganglia (DRG) neurons; assay: Calcium mobilization in primary DRG sensory neurons, basal (unstimulated); type: cell-based; conditions: 10 μM
Procedure: (§1) Male C57B16 mice (6-8 weeks) were used to produce primary cultures of dorsal root ganglia (DRG) sensory neurons for calcium flux experiments, and to perform studies of colorectal distention and intestinal isotonic contraction. All procedures were approved by Institutional Animal Care Committees (CEEA 122).
To determine whether C12-Asn-GABA or C12-Asn-BABA is capable of signaling to sensory nerves, calcium mobilization studies were performed on primary cultures of mouse dorsal root ganglia (DRG) neurons. […] The same experiments were thereafter performed in neurons activated by either an agonist of the receptor calcium channel TRPV1 (capsaicin) or by a mix of agonists (histamine, serotonin and bradykinin) for G protein coupled receptors (GPCR) implicated in visceral hypersensitivity. Exposure of neurons to either capsaicin (125 nM) or the mix of GPCR agonists (histamine, bradykinin, serotonin, 10 μM each) induced an increase in calcium flux as shown by the higher % of responding neurons and amplitude of the response (ΔF/F) compared to the vehicle (FIG. 4A, 4B). […] To investigate whether the inhibitory effect of C12-Asn-GABA was associated to the GABA residue, neurons were treated with saclofen (10, 50, and 100 μM), a competitive antagonist of the GABAB receptor. […]

[3] = test system: mouse sensory neurons activated by capsaicin; assay: Calcium flux in sensory neurons activated by capsaicin (TRPV1 agonist); type: cell-based; conditions: capsaicin 125 nM; pretreatment with increasing amounts of compound
Procedure: (§2) FIG. 4: C12-Asn-GABA inhibits neuronal activation via the GABA B receptor. Amplitude of intracellular calcium mobilization (ΔF/F; right panel) in mouse sensory neurons and percentage of responding neurons (left panel) pretreated with increasing amounts of C12-Asn-GABA (black circle) or vehicle (HBSS; white circle) and treated with capsaicin (125 nM; A) or a mix of G protein coupled receptor agonists (histamine, serotonin and bradykinin 10 μM each; B). Data are represented as mean±SEM; n=4 independent experiments of 3 wells per condition and 30-80 neurons per well. […] Percentage of responding neurons pretreated with increasing amounts of saclofen (black circle) or vehicle (HBSS; white circle) and treated with C12-Asn-GABA (10 μM) and capsaicin (125 nM; C) or a mix of G protein coupled receptor agonist (histamine, serotonin and bradykinin 10 μM each; D). Data are represented as mean±SEM; n=4 independent experiments of 3 wells per condition and 30-80 neurons per well.
FIG. 7: C14-Asn-GABA inhibits neuronal activation by capsaicin. Amplitude of intracellular calcium mobilization (F/F; A) in mouse sensory neurons and percentage of responding neurons (B) pretreated with 10 μM of C14-Asn-GABA (black bar) or vehicle (HBSS; white bar) and treated with capsaicin (125 nM). Data are represented as mean±SEM; n=3 independent experiments of 3 wells per condition and 35-82 neurons per well.
as §1
To determine whether C12-Asn-GABA or C12-Asn-BABA is capable of signaling to sensory nerves, calcium mobilization studies were performed on primary cultures of mouse dorsal root ganglia (DRG) neurons. […]

[4] = test system: mouse sensory neurons activated by mix of GPCR agonists (histamine, serotonin, bradykinin); assay: Calcium flux in sensory neurons activated by mix of GPCR agonists; type: cell-based; conditions: serotonin 10 μM each, pretreatment with increasing amounts of compound
Procedure: as §2
as §1, with “122). […]” for “122).”

CCCCCCCCCCCC(=O)NC(CC(N)=O)C(=O)NCCCC(=O)O (centres unmarked) [C12-Asn-GABA, C11 C(O)-Asn-gamma-aminobutyric acid]
concentration in the blood [1]: increased the concentration | concentration in the colonic tissue [1]: increased the concentration | calcium mobilization under basal (unstimulated) conditions [2]: does not induce calcium mobilization | calcium flux increase induced by capsaicin (% responding neurons, amplitude ΔF/F) [3]: prevented by C12-Asn-GABA pretreatment in a dose-dependent manner | calcium flux increase induced by mix of GPCR agonists (% responding neurons, amplitude ΔF/F) [4]: prevented by C12-Asn-GABA pretreatment in a dose-dependent manner
